Measurements as given in patent US20110092476A1, “Bicycloheteroaryl compounds as P2X7 modulators and uses thereof” (Renovis, Inc., priority 2006, published 2011).
pIC50: −log10 of the molar value.

Molecular target: T1, P2X7 receptor (Homo sapiens, UniProt Q99572)
T1 construct: host or cells: THP-1 cells differentiated with LPS and IFN-γ
T1 sequence (Q99572 1-595): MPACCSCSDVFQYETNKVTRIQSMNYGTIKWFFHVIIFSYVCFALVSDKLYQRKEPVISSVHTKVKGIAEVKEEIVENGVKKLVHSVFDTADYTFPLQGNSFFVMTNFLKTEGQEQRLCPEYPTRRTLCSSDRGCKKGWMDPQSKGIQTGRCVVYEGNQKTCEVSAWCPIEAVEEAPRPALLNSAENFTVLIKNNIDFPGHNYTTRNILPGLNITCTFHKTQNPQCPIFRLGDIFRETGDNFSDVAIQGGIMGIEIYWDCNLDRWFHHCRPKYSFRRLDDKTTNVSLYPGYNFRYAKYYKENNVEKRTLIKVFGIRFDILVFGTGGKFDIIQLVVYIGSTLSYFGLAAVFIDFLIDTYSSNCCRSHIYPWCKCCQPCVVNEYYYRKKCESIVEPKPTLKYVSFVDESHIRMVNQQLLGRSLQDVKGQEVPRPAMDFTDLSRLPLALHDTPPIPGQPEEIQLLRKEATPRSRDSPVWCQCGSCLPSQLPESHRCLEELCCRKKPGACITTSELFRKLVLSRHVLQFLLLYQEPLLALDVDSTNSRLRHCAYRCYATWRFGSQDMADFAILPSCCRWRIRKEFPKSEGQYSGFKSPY
Assay: IL-1β release assay in differentiated THP-1 cells stimulated with BzATP (Example 9)
Assay type: cell-based
Conditions: 0.1 μM compound (symbols *); differentiated THP-1 cells, BzATP 250 uM; read-out: IL-1β % Inhib. @ 0.3 or 0.1 uM
Method: THP-1 cells (ATCC Cat #285-IF-100) are plated in 96 well plates at a concentration of 200,000 cells per well and allowed to differentiate in RPMI-1640 media (ATCC Cat #30-2001) containing 10% FBS, 100 IU/mL penicillin, 100 ug/mL streptomycin, 100 ng/mL LPS and 100 ng/mL IFN-γ for 16 hours. Following differentiation, the cells are treated for an additional 2 hours in RPMI-1640 media containing 100 IU/mL penicillin, 100 ug/mL streptomycin and fresh LPS at 100 ng/mL. The cells are then pretreated for 30 minutes with the compound of interest at the appropriate concentration in RPMI media containing 100 IU/mL penicillin, 100 ug/mL streptomycin. Following the pretreatment 2′,3′-O-(4-benzoylbenzoyl)-adenosine 5′-triphosphate (Sigma Aldrich Cat #B6396) is added to a final concentration of 250 uM and the cells are incubated for an additional 45 minutes. 30 uL of cell supernatant is then collected and IL-1β levels determined via ELISA (R&D systems Cat. #HSLB50) according to manufacturer's recommendations using the Tecan Safire plate reader. Background adjusted IL-1β levels of drug treated and non-treated cells are used to calculate the percent inhibition.
The compounds set forth in Table 1 were tested for activity in a cellular model as described herein. Specifically, cells were pretreated with differing amounts of the compound under test and released IL-1β determined as in Example 9, above. Measurements were made and IC50 values, presented in Table 2, below, were determined by fitting the data to a four parameter logistic equation using GraphPad Prism software (GraphPad Software, Inc). The equation may be expressed by the following formula:
Y=Bottom+(Top−Bottom)/(1+10̂((Log EC50−X)*HillSlope))
Where X is the logarithm of concentration, Y is the response and Y starts at Bottom and goes to Top with a sigmoid shape.

Row | inhibition at 0.1 µM [%] | Structure (SMILES)
1 | 0 to 25 | O=C(Nc1cccc2c(=O)n(CC3(O)CCCCC3)ccc12)c1ccc(-c2ccccc2)o1 [Compound 9]
2 | 0 to 25 | COc1cccc(CCC(=O)Nc2cccc3c(=O)n(CC4(O)CCCCC4)ccc23)c1 [Compound 10]
3 | 0 to 25 | COc1cc(OC)cc(C(=O)Nc2cccc3c(=O)n(CC4(O)CCCCC4)ccc23)c1 [Compound 19]
4 | 0 to 25 | Cc1cccc(C(=O)Nc2cccc3c(=O)n(CC4(O)CCCCC4)ccc23)c1 [Compound 20]
5 | 0 to 25 | CCOc1ccc(C(=O)Nc2cccc3c(=O)n(CC4(O)CCCCC4)ccc23)cc1 [Compound 21]
6 | 0 to 25 | O=C(Nc1cccc2c(=O)n(CC3(O)CCCCC3)ccc12)c1ccc(-c2ccccc2)cc1 [Compound 22]
7 | 0 to 25 | CC(C)(C)c1ccc(C(=O)Nc2cccc3c(=O)n(CC4(O)CCCCC4)ccc23)cc1 [Compound 23]
8 | 26 to 50 | CC(C(=O)Nc1cccc2c(=O)n(CC3(O)CCCCC3)ccc12)c1ccccc1 (stereo not shown) [Compound 24]

Same assay, conditions: 0.3 μM compound (symbols +); differentiated THP-1 cells, BzATP 250 uM; read-out: IL-1β % Inhib. @ 0.3 or 0.1 uM

Row | inhibition at 0.3 µM [%] | Structure (SMILES)
9 | 0 to 25 | O=C(Nc1cccc2c(=O)n(CCO)ccc12)c1ccccc1 [Compound 1]
10 | 0 to 25 | COc1ccc(CC(=O)Nc2cccc3c(=O)n(CCO)ccc23)cc1 [Compound 2]
11 | 51 to 75 | O=C(CCc1ccccc1)Nc1cccc2c(=O)n(CCO)ccc12 [Compound 3]
12 | 0 to 25 | COc1ccc(C(=O)Nc2cccc3c(=O)n(C(CO)CO)ccc23)c(OC)c1 [Compound 5]
13 | 26 to 50 | O=C(Nc1cccc2c(=O)n(CCO)ccc12)c1ccc(C(F)(F)F)cc1C(F)(F)F [Compound 6]
14 | 0 to 25 | Cc1cc(C(=O)Nc2cccc3c(=O)n(CC4(O)CCCCC4)ccc23)ccc1Cl [Compound 17]
15 | 0 to 25 | COc1ccc(CCC(=O)Nc2cccc3c(=O)n(CC4(O)CCCCC4)ccc23)cc1 [Compound 25]
16 | 0 to 25 | O=C(Cc1cccc2ccccc12)Nc1cccc2c(=O)n(CC3(O)CCCCC3)ccc12 [Compound 26]
17 | 0 to 25 | O=C(Nc1cccc2c(=O)n(CC3(O)CCCCC3)ccc12)c1ccc2ccccc2c1 [Compound 27]
18 | 0 to 25 | O=C(Cc1ccccc1F)Nc1cccc2c(=O)n(CC3(O)CCCCC3)ccc12 [Compound 28]
19 | 26 to 50 | COc1ccccc1CC(=O)Nc1cccc2c(=O)n(CC3(O)CCCCC3)ccc12 [Compound 29]
20 | 0 to 25 | COc1ccc(OC)c(CC(=O)Nc2cccc3c(=O)n(CC4(O)CCCCC4)ccc23)c1 [Compound 30]
21 | 0 to 25 | COc1ccc(CC(=O)Nc2cccc3c(=O)n(CC4(O)CCCCC4)ccc23)cc1OC [Compound 31]
22 | 0 to 25 | Cc1cccc(CC(=O)Nc2cccc3c(=O)n(CC4(O)CCCCC4)ccc23)c1 [Compound 32]
23 | 0 to 25 | COc1ccc(CC(=O)Nc2cccc3c(=O)n(CC4(O)CCCCC4)ccc23)cc1 [Compound 33]
24 | 0 to 25 | CCOc1ccc(CC(=O)Nc2cccc3c(=O)n(CC4(O)CCCCC4)ccc23)cc1 [Compound 34]
25 | 26 to 50 | Cc1ccc(CC(=O)Nc2cccc3c(=O)n(CC4(O)CCCCC4)ccc23)cc1 [Compound 35]
26 | 26 to 50 | O=C(CCCc1ccccc1)Nc1cccc2c(=O)n(CC3(O)CCCCC3)ccc12 [Compound 36]
27 | 0 to 25 | O=C(Nc1cccc2c(=O)n(CC3(O)CCCCC3)ccc12)c1cc2ccccc2o1 [Compound 37]
28 | 0 to 25 | O=C(Cc1ccc2c(c1)OCO2)Nc1cccc2c(=O)n(CC3(O)CCCCC3)ccc12 [Compound 38]
29 | 0 to 25 | COc1cc(CC(=O)Nc2cccc3c(=O)n(CC4(O)CCCCC4)ccc23)cc(OC)c1 [Compound 39]
30 | 0 to 25 | COc1c(C)cc(C(=O)Nc2cccc3c(=O)n(CC4(O)CCCCC4)ccc23)cc1C [Compound 40]
31 | 0 to 25 | COc1ccc(CC(=O)Nc2cccc3c(=O)n(CC4(O)CCCCC4)ccc23)c(OC)c1 [Compound 47]
32 | 0 to 25 | Cc1cc(C(=O)Nc2cccc3c(=O)n(CC4(O)CCCCC4)ccc23)ccc1F [Compound 48]
33 | 0 to 25 | O=C(CCc1ccc(Cl)cc1)Nc1cccc2c(=O)n(CC3(O)CCCCC3)ccc12 [Compound 49]
34 | 0 to 25 | CCOc1ccccc1CC(=O)Nc1cccc2c(=O)n(CC3(O)CCCCC3)ccc12 [Compound 50]

Row | inhibition at 0.3 µM [%] | Structure (SMILES)
35 | 0 to 25 | Cc1ccc(Cl)c(C(=O)Nc2cccc3c(=O)n(CC4(O)CCCCC4)ccc23)c1 [Compound 51]
36 | 0 to 25 | Cc1ccc(Cl)cc1C(=O)Nc1cccc2c(=O)n(CC3(O)CCCCC3)ccc12 [Compound 52]
37 | 0 to 25 | Cc1cccc(CCC(=O)Nc2cccc3c(=O)n(CC4(O)CCCCC4)ccc23)c1 [Compound 53]
38 | 26 to 50 | O=C(Nc1cccc2c(=O)n(CC3(O)CCCCC3)ccc12)c1cc2cc(Cl)ccc2o1 [Compound 54]
39 | 0 to 25 | Cc1cccc(C(=O)Nc2cccc3c(=O)n(CC4(O)CCCCC4)ccc23)c1Cl [Compound 55]
40 | 0 to 25 | COc1ccc(C(=O)Nc2cccc3c(=O)n(CC4(O)CCCCC4)ccc23)c(C)c1 [Compound 56]
41 | 26 to 50 | O=C(CCc1cccc(Cl)c1)Nc1cccc2c(=O)n(CC3(O)CCCCC3)ccc12 [Compound 58]
42 | 26 to 50 | CC(C)Cc1ccc(C(=O)Nc2cccc3c(=O)n(CC4(O)CCCCC4)ccc23)cc1 [Compound 59]
43 | 26 to 50 | O=C(Cc1ccc(C(F)(F)F)cc1)Nc1cccc2c1CCN(CCO)C2=O [Compound 60]
44 | 0 to 25 | O=C(CCc1cc(C(F)(F)F)cc(C(F)(F)F)c1)Nc1cccc2c(=O)n(CCO)ccc12 [Compound 61]
45 | 0 to 25 | O=C(Cc1ccc2c(c1)OCCO2)Nc1cccc2c(=O)n(CCO)ccc12 [Compound 63]
46 | 51 to 75 | O=C(Cc1cc(C(F)(F)F)cc(C(F)(F)F)c1)Nc1cccc2c(=O)n(CCO)ccc12 [Compound 64]
47 | > 76 | COc1ccc(CC(=O)Nc2cccc3c(=O)n(CCO)ccc23)cc1Br [Compound 66]
48 | 0 to 25 | O=C(Cc1cc(C(F)(F)F)ccc1Cl)Nc1cccc2c(=O)n(CCO)ccc12 [Compound 67]
49 | 26 to 50 | O=C(Cc1cc(Cl)ccc1C(F)(F)F)Nc1cccc2c(=O)n(CCO)ccc12 [Compound 68]
50 | 26 to 50 | O=C(Cc1cc(C(F)(F)F)ccc1C(F)(F)F)Nc1cccc2c(=O)n(CCO)ccc12 [Compound 70]
51 | 0 to 25 | CS(=O)(=O)c1ccc(CCC(=O)Nc2cccc3c(=O)n(CCO)ccc23)cc1 [Compound 71]
52 | 0 to 25 | CS(=O)(=O)c1ccc(CC(=O)Nc2cccc3c(=O)n(CCO)ccc23)cc1 [Compound 72]
53 | 26 to 50 | O=C(Cc1ccc(F)cc1)Nc1cccc2c(=O)n(CCO)ccc12 [Compound 73]
54 | 0 to 25 | CCC(C(=O)Nc1cccc2c(=O)n(CCO)ccc12)c1ccccc1 (stereo not shown) [Compound 74]
55 | 0 to 25 | COc1cccc(CC(=O)Nc2cccc3c(=O)n(CCO)ccc23)c1 [Compound 75]
56 | 0 to 25 | O=C(Cc1ccccc1)Nc1cccc2c(=O)n(CCO)ccc12 [Compound 76]
57 | 0 to 25 | COc1ccc(OC)c(CC(=O)Nc2cccc3c(=O)n(CCO)ccc23)c1 [Compound 77]
58 | 0 to 25 | CC(C)C(C(=O)Nc1cccc2c(=O)n(CCO)ccc12)c1ccc(Cl)cc1 (stereo not shown) [Compound 78]
59 | 0 to 25 | O=C(Nc1cccc2c(=O)n(CCO)ccc12)C1(c2ccc(Cl)cc2)CCCC1 [Compound 79]
60 | 51 to 75 | O=C(Cc1ccc(Cl)cc1Cl)Nc1cccc2c(=O)n(C(CO)CO)ccc12 [Compound 82]

Same assay, conditions: THP-1 cells, BzATP 250 uM, IL-1β by ELISA

Row | pIC50 | Structure (SMILES)
61 | < 6.00 | O=C(Nc1cccc2c(=O)n(CCO)ccc12)C1(c2ccc(Cl)cc2)CCCC1 [Compound 79]
